The test concerns the target T1, BCL6 (Homo sapiens, UniProt P41182).
T1 construct: endogenous in cells; host or cells: T47D breast cancer epithelial cells
The test can be described thus: Immunofluorescence protocol for high content imaging of BCL6 (degradation) in T47D cells, 3 days compound treatment. The test is classed as cell-based. To be noted: for Dmax: read-out: Mean Dmax (%)** category; for DC50: read-out: Mean DC50 (nM)* category. The method, boiled down: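 T47D, RPMI1640/10% FBS; cpd 11-pt 3-fold, top 0.1 or 1 μM final; 3 d, 37° C. Fix 4% PFA, perm 0.1% Triton, block 3% BSA; anti-BCL6 1:300 o/n 4° C; Alexa-488 2°, CellMask-647, Hoechst. Imaged 10×, 4 fields/well.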

Where [1] appears, read: T47D cells, 3 days compound treatment.

Structures can show the parent of a compound that is named as a salt. Where two headings read alike, the source gives them in different places.

On to `CNC(=O)COc1cc2cc(Nc3nc(N4CCC(O[C@H]5C[C@H](N6CC=C(c7ccc8c(c7F)CN(C7CCC(=O)NC7=O)C8=O)CC6)C5)CC4)ncc3Cl)ccc2n(C(C)C)c1=O` (stereo partly shown) [Compound 426, 2-({6-[(5-chloro-2-{4-[(1r,3r)-3-{4-[2-(2,6-dioxopiperidin-3-yl)-4-fluoro-1-oxo-2,3-dihydro-1H-isoindol-5-yl]-1,2,3,6-tetrahydropyridin-1-yl}cyclobutoxy]piperidin-1-yl}pyrimidin-4-yl)amino]-2-oxo-1-(propan-2-yl)-1,2-dihydroquinolin-3-yl}oxy)-N-methylacetamide], for which the 50% degradation concentration (DC50) was less than 10 nM. Further, the Dmax (T47D) was no less than 70%.

As for `CNC(=O)COc1cc2cc(Nc3nc(N4CCC(CN5CC(N6CCC(c7ccc8c(c7)C(=O)N(C7CCC(=O)NC7=O)C8=O)C(F)C6)C5)CC4)ncc3Cl)ccc2n(C(C)C)c1=O` (stereo not shown) [Compound 213, 2-({6-[(5-chloro-2-{4-[(3-{4-[2-(2,6-dioxopiperidin-3-yl)-1,3-dioxo-2,3-dihydro-1H-isoindol-5-yl]-3-fluoropiperidin-1-yl}azetidin-1-yl)methyl]piperidin-1-yl}pyrimidin-4-yl)amino]-2-oxo-1-(propan-2-yl)-1,2-dihydroquinolin-3-yl}oxy)-N-methylacetamide], the 50% degradation concentration (DC50) lay within 10 to 50 nM. The greatest degradation seen (Dmax) (T47D) was 50 to 70%.

For the compound `CNC(=O)COc1cc2c(F)c(Nc3nc(N4CCC(CN5CCC6(CC5)CC5(CN(c7ccc8c(c7)CN(C7CCC(=O)NC7=O)C8=O)C5)C6)CC4)ncc3Cl)ccc2n(C(C)C)c1=O` (stereo not shown) [Compound 421, 2-{[6-({5-chloro-2-[4-({2-[2-(2,6-dioxopiperidin-3-yl)-1-oxo-2,3-dihydro-1H-isoindol-5-yl]-2,9-diazadispiro [3.1.56.14]dodecan-9-yl}methyl)piperidin-1-yl]pyrimidin-4-yl}amino)-5-fluoro-2-oxo-1-(propan-2-yl)-1,2-dihydroquinolin-3-yl]oxy}-N-methylacetamide], the 50% degradation concentration (DC50) is less than 10 nM. The greatest degradation seen (Dmax) (T47D) was no less than 70%.

As for `CNC(=O)COc1cc2cc(Nc3nc(N4CCC(O[C@H]5C[C@H](N6CC=C(c7ccc8c(c7Cl)CN([C@H]7CCC(=O)NC7=O)C8=O)CC6)C5)CC4)ncc3Cl)ccc2n(C(C)C)c1=O` [Compound 428], the 50% degradation concentration (DC50) is less than 10 nM. Moreover, under “T47D”, the Dmax is no less than 70%.

Take `CNC(=O)COc1cc2cc(Nc3nc(N4CCC(O[C@H]5C[C@H](N6C[C@H](C)N(c7ccc8c(c7)C(=O)N(C7CCC(=O)NC7=O)C8=O)[C@@H](C)C6)C5)CC4)ncc3Cl)ccc2n(C(C)C)c1=O` (stereo partly drawn) [Compound 246, 2-({6-[(5-chloro-2-{4-[(1r,3r)-3-[(3S,5S)-4-[2-(2,6-dioxopiperidin-3-yl)-1,3-dioxo-2,3-dihydro-1H-isoindol-5-yl]-3,5-dimethylpiperazin-1-yl]cyclobutoxy]piperidin-1-yl}pyrimidin-4-yl)amino]-2-oxo-1-(propan-2-yl)-1,2-dihydroquinolin-3-yl}oxy)-N-methylacetamide]: the DC50 was less than 10 nM. Also, the Dmax (T47D) was in the range of 50 to 70%.

With `CNC(=O)COc1cc2cc(Nc3nc(N4CCC(F)(CN5CCC6(CC5)CN(c5ccc7c(c5)CN(C5CCC(=O)NC5=O)C7=O)C6)CC4)ncc3Cl)ccc2n(C(C)C)c1=O` (stereo not shown) [Compound 51, 2-{[6-({5-chloro-2-[4-({2-[2-(2,6-dioxopiperidin-3-yl)-1-oxo-2,3-dihydro-1H-isoindol-5-yl]-2,7-diazaspiro[3.5]nonan-7-yl}methyl)-4-fluoropiperidin-1-yl]pyrimidin-4-yl}amino)-2-oxo-1-(propan-2-yl)-1,2-dihydroquinolin-3-yl]oxy}-N-methylacetamide], under setting [1], the DC50 was less than 10 nM and the maximal degradation (Dmax) was in the range of 50 to 70%.

Turning to `CNC(=O)COc1cc2cc(Nc3nc(N4CCC(O[C@H]5C[C@H](N6CCN(c7ccc8c(c7Cl)CN(C7CCC(=O)NC7=O)C8=O)[C@@H](C)C6)C5)CC4)ncc3Cl)ccc2n(C(C)C)c1=O` (stereo partly drawn) [Compound 206, 2-({6-[(5-chloro-2-{4-[(1r,3r)-3-[(3S)-4-[4-chloro-2-(2,6-dioxopiperidin-3-yl)-1-oxo-2,3-dihydro-1H-isoindol-5-yl]-3-methylpiperazin-1-yl]cyclobutoxy]piperidin-1-yl}pyrimidin-4-yl)amino]-2-oxo-1-(propan-2-yl)-1,2-dihydroquinolin-3-yl}oxy)-N-methylacetamide], under setting [1], the DC50 was less than 10 nM and the Dmax was no less than 70%.

Consider `CNC(=O)COc1cc2cc(Nc3nc(N4CCC(O[C@H]5C[C@H](N6CC7(CCN7c7cccc8c7C(=O)N(C7CCC(=O)NC7=O)C8)C6)C5)CC4)ncc3Cl)ccc2n(C(C)C)c1=O` (stereo partly shown) [Compound 310, 2-({6-[(5-chloro-2-{4-[(1r,3r)-3-{1-[2-(2,6-dioxopiperidin-3-yl)-3-oxo-2,3-dihydro-1H-isoindol-4-yl]-1,6-diazaspiro[3.3]heptan-6-yl}cyclobutoxy]piperidin-1-yl}pyrimidin-4-yl)amino]-2-oxo-1-(propan-2-yl)-1,2-dihydroquinolin-3-yl}oxy)-N-methylacetamide], for which the DC50 was less than 10 nM. Also, for the setting “T47D”, the greatest degradation seen (Dmax) fell in the range of 50 to 70%.

Take `CNC(=O)COc1cc2cc(Nc3nc(N4CCC(OC5CCC6(CC5)CN(c5cc(OC)cc7c5CN(C5CCC(=O)NC5=O)C7=O)C6)CC4)ncc3Cl)ccc2n(C(C)C)c1=O` (stereo not shown) [Compound 301, 2-{[6-({5-chloro-2-[4-({2-[2-(2,6-dioxopiperidin-3-yl)-6-methoxy-1-oxo-2,3-dihydro-1H-isoindol-4-yl]-2-azaspiro[3.5]nonan-7-yl}oxy)piperidin-1-yl]pyrimidin-4-yl}amino)-2-oxo-1-(propan-2-yl)-1,2-dihydroquinolin-3-yl]oxy}-N-methylacetamide]: the 50% degradation concentration (DC50) is less than 10 nM. Also, the greatest degradation seen (Dmax) (T47D) was in the range of 50 to 70%.

Take `CNC(=O)COc1cc2cc(Nc3nc(N4CCN(CC5CCN(c6ccc(OC)c7c6CN(C6CCC(=O)NC6=O)C7=O)CC5)CC4)ncc3Cl)ccc2n(C(C)C)c1=O` (stereo not shown) [Compound 121, 2-{[6-({5-chloro-2-[4-({1-[2-(2,6-dioxopiperidin-3-yl)-7-methoxy-1-oxo-2,3-dihydro-1H-isoindol-4-yl]piperidin-4-yl}methyl)piperazin-1-yl]pyrimidin-4-yl}amino)-2-oxo-1-(propan-2-yl)-1,2-dihydroquinolin-3-yl]oxy}-N-methylacetamide]: under setting [1], the half-maximal degradation concentration (DC50) is less than 10 nM and the greatest degradation seen (Dmax) lay within 50 to 70%.

For the compound `CNC(=O)COc1cc2c(F)c(Nc3cc(N4CCN(CC5CCC6(CC5)CN(c5cccc7c5C(=O)N(C5CCC(=O)NC5=O)C7=O)C6)CC4)ncc3Cl)ccc2n(C(C)C)c1=O` (stereo not shown) [Compound 247, 2-{[6-({5-chloro-2-[4-({2-[2-(2,6-dioxopiperidin-3-yl)-1,3-dioxo-2,3-dihydro-1H-isoindol-4-yl]-2-azaspiro[3.5]nonan-7-yl}methyl)piperazin-1-yl]pyridin-4-yl}amino)-5-fluoro-2-oxo-1-(propan-2-yl)-1,2-dihydroquinolin-3-yl]oxy}-N-methylacetamide], the DC50 was less than 10 nM. The Dmax (T47D) is no less than 70%.

As to `CNC(=O)COc1cc2cc(Nc3nc(N4CCC(O[C@H]5C[C@H](N6CCN(c7ccc8c(c7F)CN(C7CCC(=O)NC7=O)C8=O)CC6)C5)CC4)ncc3Cl)ccc2n(C(C)C)c1=O` (stereo partly shown) [Compound 164, 2-[[6-[[5-chloro-2-[4-[3-[4-[2-(2,6-dioxo-3-piperidyl)-4-fluoro-1-oxo-isoindolin-5-yl]piperazin-1-yl]cyclobutoxy]-1-piperidyl]pyrimidin-4-yl]amino]-1-isopropyl-2-oxo-3-quinolyl]oxy]-N-methyl-acetamide formate], under setting [1], the DC50 was less than 10 nM and the Dmax is no less than 70%.

`CNC(=O)COc1cc2cc(Nc3nc(N4CCC(F)(CN5CCC6(CC5)CN(c5ccc7c(c5)CN(C5CCC(=O)NC5=O)C7=O)C6(C)C)CC4)ncc3Cl)ccc2n(C(C)C)c1=O` (stereo not shown) [Compound 382, 2-{[6-({5-chloro-2-[4-({2-[2-(2,6-dioxopiperidin-3-yl)-1-oxo-2,3-dihydro-1H-isoindol-5-yl]-1,1-dimethyl-2,7-diazaspiro[3.5]nonan-7-yl}methyl)-4-fluoropiperidin-1-yl]pyrimidin-4-yl}amino)-2-oxo-1-(propan-2-yl)-1,2-dihydroquinolin-3-yl]oxy}-N-methylacetamide]: the half-maximal degradation concentration (DC50) was less than 10 nM. For the same compound, where the note is “T47D”, the maximal degradation (Dmax) was no less than 70%.

On to `CNC(=O)COc1cc2cc(Nc3ncncc3Cl)ccc2n(CCOc2ccc3c(c2)C(=O)N(C2CCC(=O)NC2=O)C3=O)c1=O` (stereo not shown) [Compound 146, 2-({6-[(5-chloropyrimidin-4-yl)amino]-1-(2-{[2-(2,6-dioxopiperidin-3-yl)-1,3-dioxo-2,3-dihydro-1H-isoindol-5-yl]oxy}ethyl)-2-oxo-1,2-dihydroquinolin-3-yl}oxy)-N-methylacetamide], for which the DC50 under setting [1] is less than 10 nM.

On to `CNC(=O)COc1cc2cc(Nc3nc(N4CCC5(CCN(CC6(F)CCN(c7c(F)ccc8c7CN(C7CCC(=O)NC7=O)C8=O)CC6)CC5)CC4)ncc3Cl)ccc2n(C(C)C)c1=O` (stereo not shown) [Compound 96, 2-{[6-({5-chloro-2-[9-({1-[2-(2,6-dioxopiperidin-3-yl)-5-fluoro-1-oxo-2,3-dihydro-1H-isoindol-4-yl]-4-fluoropiperidin-4-yl}methyl)-3,9-diazaspiro[5.5]undecan-3-yl]pyrimidin-4-yl}amino)-2-oxo-1-(propan-2-yl)-1,2-dihydroquinolin-3-yl]oxy}-N-methylacetamide], for which, under setting [1], the 50% degradation concentration (DC50) is less than 10 nM and the greatest degradation seen (Dmax) lay in the range of 50 to 70%.

Consider `CNC(=O)COc1cc2cc(Nc3nc(N4CCN(C(=O)C5CCC6(CCN(c7ccc8c(c7)CN(C7CCC(=O)NC7=O)C8=O)C6)C5)CC4)ncc3Cl)ccc2n(C(C)C)c1=O` (stereo not shown) [Compound 66, 2-[(6-{[5-chloro-2-(4-{2-[2-(2,6-dioxopiperidin-3-yl)-1-oxo-2,3-dihydro-1H-isoindol-5-yl]-2-azaspiro[4.4]nonane-7-carbonyl}piperazin-1-yl)pyrimidin-4-yl]amino}-2-oxo-1-(propan-2-yl)-1,2-dihydroquinolin-3-yl)oxy]-N-methylacetamide], for which, under setting [1], the DC50 was less than 10 nM and the Dmax is less than 50%.

The values above are taken from patent US11986532B2 (Arvinas Operations, Inc., priority 2021, dated 2024).
